Where “and” joins values, the source holds several entries; their conditions need not be identical. Identical values can stand only once. Toxic doses and inconclusive results are not listed.
System: CD2F1 mice, L1210 leukemia ip, survival T/C
Test: NCI In Vivo Anticancer Drug Screen. Data for tumor model L1210 Leukemia (intraperitoneal) in CD2F1 (CDF1) mice
Conditions: endpoint: mean survival time, higher = longer survival
Summary of the method: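 Vehicle-treated tumor-bearing mice served as controls (C) for compound-treated mice (T). Reported figure is T divided by C.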

[1] = dose: 12.5 mg/kg/injection, schedule: Q01DX009 (ip), vehicle: saline
[2] = dose: 25.0 mg/kg/injection, schedule: Q01DX009 (ip), vehicle: saline
[3] = dose: 100.0 mg/kg/injection, schedule: Q01DX009 (ip), vehicle: saline with Tween-80
[4] = dose: 200.0 mg/kg/injection, schedule: Q01DX009 (ip), vehicle: saline with Tween-80
[5] = dose: 400.0 mg/kg/injection, schedule: Q01DX009 (ip), vehicle: saline with Tween-80
[6] = dose: 50.0 mg/kg/injection, schedule: Q01DX009 (ip), vehicle: saline with Tween-80
[7] = dose: 50.0 mg/kg/injection, schedule: Q01DX009 (ip), vehicle: saline
[8] = dose: 100.0 mg/kg/injection, schedule: Q01DX009 (ip), vehicle: saline
[9] = dose: 200.0 mg/kg/injection, schedule: Q01DX009 (ip), vehicle: saline

SMILES: Cc1ccc(NC(=O)ON(C)C)cc1
- T/C (dose: 100.0 mg/kg/injection, schedule: Q04DX002 (ip), vehicle: other): 102 % of control

SMILES: C=C(C)CCCC(C)C(O)C=O (centres undefined)
- T/C (dose: 100.0 mg/kg/injection, schedule: Q01DX001 (ip), vehicle: saline): 98 % of control
- T/C (dose: 200.0 mg/kg/injection, schedule: Q01DX001 (ip), vehicle: saline): 95 % of control
- T/C (dose: 400.0 mg/kg/injection, schedule: Q01DX001 (ip), vehicle: saline): 95 % of control

SMILES: CC(C)=NNCCO
- T/C (dose: 6.25 mg/kg/injection, schedule: Q01DX009 (ip), vehicle: saline): 93 % of control
- T/C [1]: 95 % of control
- T/C [2]: 104 % of control

SMILES: O=C1OC(=O)c2ccc([N+](=O)[O-])c3cccc1c23
- T/C (dose: 100.0 mg/kg/injection, schedule: Q04DX003 (ip), vehicle: Klucel (hydroxypropylcellulose) (HPC)): 98 % of control
- T/C (dose: 200.0 mg/kg/injection, schedule: Q04DX003 (ip), vehicle: Klucel (hydroxypropylcellulose) (HPC)): 106 % of control
- T/C (dose: 400.0 mg/kg/injection, schedule: Q04DX003 (ip), vehicle: Klucel (hydroxypropylcellulose) (HPC)): 96 % of control

SMILES: C[CH2][Sn](/[CH]=C/C=C/OC)([CH2]C)[CH2]C
- T/C (dose: 0.04 mg/kg/injection, schedule: Q01DX009 (ip), vehicle: saline): 101 % of control
- T/C (dose: 0.09 mg/kg/injection, schedule: Q01DX009 (ip), vehicle: saline): 101 % of control

SMILES: CCOC(=O)C1(C(=O)OCC)C(C)CC(OCC)N1C(=O)c1cc2c(cc1[N+](=O)[O-])OCO2 (centres undefined)
- T/C (dose: 100.0 mg/kg/injection, schedule: Q01DX001 (ip), vehicle: Klucel (hydroxypropylcellulose) (HPC)): 100 % of control
- T/C (dose: 200.0 mg/kg/injection, schedule: Q01DX001 (ip), vehicle: Klucel (hydroxypropylcellulose) (HPC)): 100 % of control
- T/C (dose: 400.0 mg/kg/injection, schedule: Q01DX001 (ip), vehicle: Klucel (hydroxypropylcellulose) (HPC)): 100 % of control

SMILES: CCOc1ccccc1/C=C1\N=C(c2ccc(Cl)cc2)OC1=O
- T/C (dose: 100.0 mg/kg/injection, schedule: Q04DX002 (ip), vehicle: saline with Tween-80): 94 % of control
- T/C (dose: 200.0 mg/kg/injection, schedule: Q04DX002 (ip), vehicle: saline with Tween-80): 98 % of control
- T/C (dose: 400.0 mg/kg/injection, schedule: Q04DX002 (ip), vehicle: saline with Tween-80): 94 % of control

SMILES: CNC(=O)c1nc2c(nc1NC)n(C)c(=O)n2C
- T/C (dose: 12.5 mg/kg/injection, schedule: Q01DX005 (ip), vehicle: other): 93 % of control
- T/C (dose: 25.0 mg/kg/injection, schedule: Q01DX005 (ip), vehicle: other): 90 % of control
- T/C (dose: 50.0 mg/kg/injection, schedule: Q01DX005 (ip), vehicle: other): 95 % of control

SMILES: CNP1(N(C)C)=NP(NC)(N(C)C)=NP(NC)(N(C)C)=N1 (centres undefined)
- T/C (dose: 100.0 mg/kg/injection, schedule: Q04DX003 (ip), vehicle: saline): 98 % of control
- T/C (dose: 200.0 mg/kg/injection, schedule: Q04DX003 (ip), vehicle: saline): 98 % of control

SMILES: O=C(c1ccccc1Cl)n1c2c(c3ccccc31)CCCC2
- T/C [3]: 110 % of control
- T/C (dose: 100.0 mg/kg/injection, schedule: Q04DX003 (ip), vehicle: saline with Tween-80): 101 % of control
- T/C [4]: 103 % of control
- T/C (dose: 200.0 mg/kg/injection, schedule: Q04DX003 (ip), vehicle: saline with Tween-80): 95 % of control
- T/C [5]: 96 % of control
- T/C (dose: 400.0 mg/kg/injection, schedule: Q04DX003 (ip), vehicle: saline with Tween-80): 97 % of control

SMILES: CCC1(O)CC2CN(CCc3c([nH]c4ccccc34)C(C(=O)OC)(c3cc4c(cc3OC)N(C)C3C(O)(C(N)=O)C(O)C5(CC)C=CCN6CCC43C65)C2)C1 (centres undefined) (tested in a mixture with another compound)
- T/C (dose: 0.13 mg/kg/injection, schedule: Q01DX009 (ip), vehicle: water): 121 % of control
- T/C (dose: 0.22 mg/kg/injection, schedule: Q01DX009 (ip), vehicle: water): 123 % of control
- T/C (dose: 0.23 mg/kg/injection, schedule: Q04DX003 (ip), vehicle: water): 121 % of control
- T/C (dose: 0.36 mg/kg/injection, schedule: Q01DX009 (ip), vehicle: water): 122 % of control
- T/C (dose: 0.39 mg/kg/injection, schedule: Q04DX003 (ip), vehicle: water): 124 % of control
- T/C (dose: 0.52 mg/kg/injection, schedule: Q04DX003 (ip), vehicle: water): 106 % of control
- T/C (dose: 1.44 mg/kg/injection, schedule: Q04DX003 (ip), vehicle: water): 112 % of control
- T/C (dose: 1.8 mg/kg/injection, schedule: Q04DX003 (ip), vehicle: water): 164 % of control
- T/C (dose: 4.0 mg/kg/injection, schedule: Q04DX003 (ip), vehicle: water): 104 % of control
- T/C (dose: 130.0 micrograms/kg/injection, schedule: Q01DX009 (ip), vehicle: water): 102 % of control
- T/C (dose: 216.0 micrograms/kg/injection, schedule: Q01DX009 (ip), vehicle: water): 107 % of control
- T/C (dose: 360.0 micrograms/kg/injection, schedule: Q01DX009 (ip), vehicle: water): 113 % of control
- T/C (dose: 600.0 micrograms/kg/injection, schedule: Q01DX009 (ip), vehicle: water): 120 % of control
- T/C (dose: 1000.0 micrograms/kg/injection, schedule: Q01DX009 (ip), vehicle: water): 122 % of control

SMILES: CC(C)OC(=S)S.[Pt]
- T/C (dose: 11.3 mg/kg/injection, schedule: Q04DX003 (ip), vehicle: saline with Tween-80): 89 % of control
- T/C (dose: 22.5 mg/kg/injection, schedule: Q04DX003 (ip), vehicle: saline with Tween-80): 97 % of control
- T/C (dose: 45.0 mg/kg/injection, schedule: Q04DX003 (ip), vehicle: saline with Tween-80): 101 % of control
- T/C (dose: 90.0 mg/kg/injection, schedule: Q04DX003 (ip), vehicle: saline with Tween-80): 97 % of control
- T/C (dose: 180.0 mg/kg/injection, schedule: Q04DX003 (ip), vehicle: saline with Tween-80): 95 % of control

SMILES: O=C(NC(CO)C(O)c1ccc(N=Nc2cccc3ccccc23)cc1)C(Cl)Cl (centres undefined)
- T/C [3]: 100 % of control
- T/C [4]: 101 % of control
- T/C [5]: 101 % of control

SMILES: CN(C)c1ccc(/C=N/NC(=O)CNC(=O)Nc2cccc(C(F)(F)F)c2)cc1
- T/C [6]: 96 % of control
- T/C [3]: 92 % of control
- T/C [4]: 88 % of control

SMILES: NCCCN1CCCCC1
- T/C (dose: 100.0 mg/kg/injection, schedule: Q04DX002 (ip), vehicle: saline): 102 % of control
- T/C (dose: 200.0 mg/kg/injection, schedule: Q04DX002 (ip), vehicle: saline): 95 % of control
- T/C (dose: 400.0 mg/kg/injection, schedule: Q04DX002 (ip), vehicle: saline): 102 % of control

SMILES: CN(C)NCc1ccccc1
- T/C [2]: 102 % of control
- T/C [7]: 102 % of control
- T/C [8]: 94 % of control and 107 % of control

SMILES: CC(=O)c1ccco1
- T/C (dose: 12.5 mg/kg/injection, schedule: Q01DX009 (ip), vehicle: saline with Tween-80): 96 % of control
- T/C (dose: 25.0 mg/kg/injection, schedule: Q01DX009 (ip), vehicle: saline with Tween-80): 95 % of control
- T/C (dose: 25.0 mg/kg/injection, schedule: Q04DX003 (ip), vehicle: saline with Tween-80): 104 % of control
- T/C [6]: 98 % of control
- T/C (dose: 50.0 mg/kg/injection, schedule: Q04DX003 (ip), vehicle: saline with Tween-80): 122 % of control

SMILES: CN(CO)c1nc(N(C)CO)nc(N(C)CO)n1
- T/C [1]: 106 % of control and 108 % of control
- T/C [2]: 105 % of control and 108 % of control
- T/C [7]: 118 % of control and 110 % of control
- T/C [8]: 117 % of control

SMILES: CC(C(=O)O)N(C)N=O (centres undefined)
- T/C (dose: 50.0 mg/kg/injection, schedule: Q01DX009 (ip), vehicle: Klucel (hydroxypropylcellulose) (HPC)): 104 % of control
- T/C (dose: 100.0 mg/kg/injection, schedule: Q01DX009 (ip), vehicle: Klucel (hydroxypropylcellulose) (HPC)): 93 % of control
- T/C (dose: 200.0 mg/kg/injection, schedule: Q01DX009 (ip), vehicle: Klucel (hydroxypropylcellulose) (HPC)): 86 % of control

SMILES: c1ccc2c[n+](C[n+]3ccc4ccccc4c3)ccc2c1
- T/C [7]: 96 % of control
- T/C [8]: 102 % of control
- T/C [9]: 102 % of control

SMILES: O=C(CNC(=O)Nc1cccc([N+](=O)[O-])c1)N/N=C/c1cccc(O)c1
- T/C [6]: 92 % of control
- T/C [3]: 95 % of control
- T/C [4]: 95 % of control

SMILES: CCOC(=O)Nc1cc(NC(C)CCCN(CC)CC)c2ncc(-c3cc(OC)c(OC)c(OC)c3)nc2n1 (centres undefined) (tested in a mixture with another compound)
- T/C [7]: 89 % of control
- T/C [8]: 89 % of control
- T/C [9]: 89 % of control

SMILES: O=C(Nc1ccccc1)OCC1CC2C=CC1C2 (centres undefined)
- T/C (dose: 75.0 mg/kg/injection, schedule: Q01DX001 (ip), vehicle: saline with Tween-80): 111 % of control
- T/C (dose: 150.0 mg/kg/injection, schedule: Q01DX001 (ip), vehicle: saline with Tween-80): 94 % of control
- T/C (dose: 300.0 mg/kg/injection, schedule: Q01DX001 (ip), vehicle: saline with Tween-80): 94 % of control

From PubChem BioAssay AID256 (DTP/NCI, 2004)
